The results in this text go back to PMC6222779, “Enzyme-Site Blocking Combined with Optimization of Molecular Docking for Efficient Discovery of Potential Tyrosinase Specific Inhibitors from Puerariae lobatae Radix” (Molecules : A Journal of Synthetic Chemistry and Natural …, 2018).

Like-named read-outs stand apart in the source and are kept apart here. Bounds are passed on as bounds.

Assay [1] concerns the target T1, TYR (Agaricus bisporus, UniProt C7FF04). The assay can be described thus: TYR inhibit assay (spectrophotometry, L-tyrosine substrate). The assay is classed as biochemical. On the set-up: purchased Sigma-Aldrich. How it is done:
TYR inhibition by PLR extract solution, selected compounds and Kojic acid was analyzed by spectrophotometry. The solution comprised 50 µL of the mixed ligand solution (the corresponding ligand standards were diluted 50-fold with PBS) incubated with 50 µL TYR solution (0.1 U/mL ) for 30 min at room temperature, followed by the addition of 100 µL L-tyrosine (0.4 mM) and incubation for another 30 min at 30 °C. Absorbance was measured in triplicate at 480 nm and inhibition ratios were calculated from the mean of the triplicate observations according to Equation (2):(2) Inhibitory Ratio (%) = Ab−Ae/Ab × 100%, where Ab and Ae represented the absorption of blank groups and experiment groups, respectively.
Target sequence in this assay (C7FF04 1-392): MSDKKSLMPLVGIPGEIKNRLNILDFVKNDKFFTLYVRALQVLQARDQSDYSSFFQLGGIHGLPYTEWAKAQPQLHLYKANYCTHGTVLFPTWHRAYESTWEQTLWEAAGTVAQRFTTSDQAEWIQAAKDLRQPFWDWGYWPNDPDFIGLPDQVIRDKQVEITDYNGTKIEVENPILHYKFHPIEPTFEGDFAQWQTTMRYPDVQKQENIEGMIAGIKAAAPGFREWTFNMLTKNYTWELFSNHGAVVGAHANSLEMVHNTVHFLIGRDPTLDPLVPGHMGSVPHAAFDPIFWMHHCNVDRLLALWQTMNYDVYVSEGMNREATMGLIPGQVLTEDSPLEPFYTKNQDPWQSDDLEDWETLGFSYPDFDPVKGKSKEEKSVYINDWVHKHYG

Assay [2] has as its target T1, TYR. The assay can be described thus: TYR-site blocking affinity ultrafiltration screening with HPLC. The conditions noted are these: specific ligand when (Ab − Ae)/Ab ≥ 50% and (Ac − Ae)/Ac ≥ 50%; TYR 0.1 mg/mL, 30 °C, 30 min, 5000× g; peaks of PLR extract.
Target sequence in this assay (C7FF04 1-392 limits assumed): as the sequence (C7FF04 1-392) above
Method: PLR-extract solution (100 µL) mixed with 100 µL diluted TYR solution and incubated at the best UF parameters. The unbound compounds can pass through the ultrafiltration membrane into the filtrates (F1), whereas the enzyme-ligand complexes remained in the chamber. After washing the retained complexes twice with 200 µL PBS (pH 6.8) to remove the residual unbound compounds, 200 µL methanol (80% (v/v)) was added into chamber and ultrasonic for 15 min to disrupt the complexes and release the ligands. The mixture was then centrifuge at 5000× g for 15 min, the filtrates (F2) containing the selected compounds were passed through a 0.45 µm filter membrane prior to HPLC analysis. For blank groups, PBS (pH 6.8) containing 2% DMSO was used to incubate with the TYR solution, followed by performance of the protocol described here. All experiments were performed in triplicate.
The PLR extract solution was added to the reaction solution and the protocol described in Section 2.5 was followed prior to HPLC analysis. All experiments were performed in triplicate.
Setting [3] is: TYR inhibitory activity, L-tyrosine 0.4 mM, absorbance at 480 nm, triplicate, read-out: IC50 ± SD.

Regarding `O=c1c(-c2ccc(O)cc2)coc2cc(O[C@@H]3O[C@H](CO)[C@@H](O)[C@H](O)[C@H]3O)ccc12` [Daidzin, daidzin], at TYR [1], the IC50 (commonly the midpoint of a concentration-inhibition curve) was over 500 µM. In addition, the “binding to TYR in ultrafiltration with kojic acid site blocking” value (“binding to TYR in ultrafiltration” for short) at TYR [2] is reported as “potential specific TYR ligands”. As to `O=c1c(-c2ccc(O)cc2)coc2cc(O[C@@H]3O[C@H](CO)[C@@H](O)[C@H](O)[C@H]3O)cc(O)c12` [Genistin, genistin], the IC50 at TYR [1] (setting [3]) was over 500 µM. The “binding to TYR in ultrafiltration” value on TYR [2] is recorded as “potential specific TYR ligands”.

Take `O=c1c(-c2ccc(O)cc2)coc2c(C3OC(COC4OCC(O)(CO)C4O)C(O)C(O)C3O)c(O)ccc12` (stereo not shown) [Mirificin, mirificin]: the IC50 at TYR [1] (setting [3]) is 12.7 ± 2.77 µM. For the same compound, at TYR [2], the “binding to TYR in ultrafiltration” value was “potential specific TYR ligands”.

The compound `O=c1c(-c2ccc(O)cc2)coc2c([C@@H]3O[C@H](CO)[C@@H](O)[C@H](O)[C@H]3O)c(O)ccc12` [Puerarin, puerarin] came in with an IC50 against TYR [1] of 9.83 ± 1.45 µM. Further, on TYR [2], the “binding to TYR in ultrafiltration” value was “potential specific TYR ligands”. For `O=c1c(-c2ccc(O)cc2)coc2c(C3OC(COC4OCC(O)(CO)C4O)C(O)C(O)C3O)c(O)cc(O)c12` (stereo not shown) [compound 7, genistein-8-C-apiosyl(16)-glucoside], on TYR [2], the “binding to TYR in ultrafiltration” value is recorded as “not recognized as specific TYR inhibitors”. The same measure, in the same setting: in the case of `COc1ccc2c(c1)OC(=O)C=C(c1ccc(O)cc1)C(OC1OC(CO)C(O)C(O)C1O)C2` (stereo not shown) [compound 11, sophoroside A] it was “not recognized as specific TYR inhibitors”.
